From patent US7879876B2, “Sulfonamide derivatives and use thereof for the modulation of metalloproteinases” (Merck Serono SA, priority 2005, dated 2011)

Tests used:
Assay type in all cases: biochemical
collagenase (MMP-1) = target: T1, collagenase (MMP-1) (Homo sapiens, UniProt P03956); assay: MMP-1 enzyme inhibition assay (coumarin-labelled peptide substrate)
T1 sequence (P03956 100-469): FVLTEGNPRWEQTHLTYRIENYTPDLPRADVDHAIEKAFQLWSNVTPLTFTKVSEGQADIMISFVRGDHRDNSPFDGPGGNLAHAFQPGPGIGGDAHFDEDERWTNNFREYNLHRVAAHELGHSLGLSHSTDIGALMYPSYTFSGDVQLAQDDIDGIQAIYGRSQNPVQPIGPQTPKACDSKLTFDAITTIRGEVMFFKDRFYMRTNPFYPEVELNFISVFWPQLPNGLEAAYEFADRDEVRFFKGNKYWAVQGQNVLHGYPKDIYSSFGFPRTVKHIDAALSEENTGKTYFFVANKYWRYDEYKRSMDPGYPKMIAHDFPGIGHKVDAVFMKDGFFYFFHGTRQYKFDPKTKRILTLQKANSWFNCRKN
Summary of the method: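 Recombinant human MMP-1, APMA-activated if needed, in Tris-HCl pH 7.6 with NaCl, CaCl2 and 0.05% Brij 35; McaPLGLDpaAR substrate added as 8 μM solution, 2 h at 37 °C. Fluorescence (320/405 nm) read without stopping; IC50 from 10 duplicate concentrations (100 μM–5.1 nM) by four-parameter fit.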

[1] = target: 92 kDa gelatinase (MMP-9) (Homo sapiens, UniProt P14780); assay: MMP-9 enzyme inhibition assay (coumarin-labeled peptide substrate); conditions: for IC50: read-out: IC50 MMP9; for inhibition at 5 µM: read-out: percentage inhibition MMP9
Summary of the method: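 Recombinant human MMP-9 (APMA-activated if needed) was assayed in 100 mM Tris-HCl pH 7.6, 100 mM NaCl, 10 mM CaCl2, 0.05% Brij 35, with McaPLGLDpaAR substrate at 37° C. for 2 h. Fluorescence was read at ex 320/em 405 nm over ten 3-fold compound doses (100 μM–5.1 nM) in duplicate. IC50 came from a four-parameter fit.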

MMP-14 = MMP-14 (Homo sapiens, UniProt P50281); assay: MMP-14 enzyme inhibition assay (coumarin-labelled peptide substrate); conditions: for inhibition at 0.1 µM / inhibition at 5 µM: read-out: percentage inhibition MMP14
Summary of the method: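 Recombinant human enzyme, APMA-activated if necessary, was incubated with McaPLGLDpaAR substrate and compound (10 concentrations in duplicate, 100 μM to 5.1 nM) in Tris-HCl pH 7.6 with NaCl, CaCl2 and Brij 35 for 2 h at 37 °C. Fluorescence was read at 320/405 nm, and IC50 was taken from a four-parameter fit.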

human ADAM17 (TACE) = human ADAM17 (TACE) (Homo sapiens, UniProt P78536); assay: TACE enzyme inhibition assay
Summary of the method: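 Recombinant human ADAM17 was run in 20 mM HEPES pH 7.5 with 0.05% Brij 35, using Mca/Dnp-TNF-alpha(−5 to +6) amide substrate (5 μM solution), for 1.5 h at room temperature. Fluorescence (ex 355/em 405 nm) was read unstopped over ten concentrations (100 μM–0.01 nM). IC50 came from a four-parameter fit, rounded to one significant figure.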

[2] = read-out: percentage inhibition MMP1

Sequence of 92 kDa gelatinase (MMP-9) (P14780 107-707 limits assumed): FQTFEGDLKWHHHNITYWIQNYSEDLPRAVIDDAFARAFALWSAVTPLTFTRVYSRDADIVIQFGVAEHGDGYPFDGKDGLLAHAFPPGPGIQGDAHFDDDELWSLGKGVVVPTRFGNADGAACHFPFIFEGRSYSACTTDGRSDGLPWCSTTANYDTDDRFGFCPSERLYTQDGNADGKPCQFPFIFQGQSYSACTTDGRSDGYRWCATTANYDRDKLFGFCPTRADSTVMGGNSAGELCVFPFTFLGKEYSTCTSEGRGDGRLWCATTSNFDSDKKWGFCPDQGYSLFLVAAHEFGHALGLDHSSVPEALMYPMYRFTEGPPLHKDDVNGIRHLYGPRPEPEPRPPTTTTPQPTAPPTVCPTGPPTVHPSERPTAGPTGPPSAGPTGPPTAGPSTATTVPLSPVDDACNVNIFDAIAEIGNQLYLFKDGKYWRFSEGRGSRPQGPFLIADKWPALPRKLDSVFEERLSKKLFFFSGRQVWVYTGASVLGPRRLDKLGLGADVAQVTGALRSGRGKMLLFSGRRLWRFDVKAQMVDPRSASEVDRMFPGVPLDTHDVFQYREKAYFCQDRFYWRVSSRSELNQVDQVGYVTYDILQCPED
Sequence of human ADAM17 (TACE) (P78536 215-824): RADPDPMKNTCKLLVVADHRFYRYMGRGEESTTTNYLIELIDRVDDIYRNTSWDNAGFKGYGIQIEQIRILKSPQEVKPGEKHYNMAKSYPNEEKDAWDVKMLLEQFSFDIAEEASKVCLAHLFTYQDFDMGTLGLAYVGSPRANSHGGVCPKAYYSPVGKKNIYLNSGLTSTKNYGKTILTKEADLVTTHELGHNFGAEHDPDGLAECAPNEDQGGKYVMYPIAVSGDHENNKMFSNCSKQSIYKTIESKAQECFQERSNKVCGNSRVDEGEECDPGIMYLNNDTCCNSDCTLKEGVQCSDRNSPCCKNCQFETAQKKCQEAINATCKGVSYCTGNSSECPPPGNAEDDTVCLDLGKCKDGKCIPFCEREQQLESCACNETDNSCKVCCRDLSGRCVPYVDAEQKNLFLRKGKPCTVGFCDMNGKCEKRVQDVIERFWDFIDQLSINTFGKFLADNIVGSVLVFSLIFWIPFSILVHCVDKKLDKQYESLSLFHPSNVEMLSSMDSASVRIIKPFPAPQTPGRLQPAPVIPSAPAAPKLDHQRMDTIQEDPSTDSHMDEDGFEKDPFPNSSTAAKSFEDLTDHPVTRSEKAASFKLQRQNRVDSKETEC

IC50 (collagenase (MMP-1); read-out: IC50 MMP1) | IC50 [1] | IC50 (MMP-14; read-out: IC50 MMP14) | IC50 (human ADAM17 (TACE)) | inhibition at 5 µM (collagenase (MMP-1); [2]) | inhibition at 5 µM [1] | inhibition at 0.1 µM (MMP-14) | inhibition at 5 µM (MMP-14) | inhibition at 0.1 µM (collagenase (MMP-1); @ 0.1 μM, read-out: percentage inhibition MMP1) | Structure (SMILES)
> 5000 nM | > 5000 nM | > 5000 nM | 67 nM |  |  |  |  |  | O=CN(O)C(CCc1ccccc1)CS(=O)(=O)N1CCc2ccccc2C1 (stereo not shown) [Example 1, N-{1-[(3,4-dihydroisoquinolin-2(1H)-ylsulfonyl)methyl]-3-phenylpropyl}-N-hydroxyformamide]
 |  |  | > 5000 nM | 5% | 28% | 14% | 95% |  | CC(C)c1ccc2c(c1)CCN(S(=O)(=O)CC(C1CC1)N(O)C=O)C2 (stereo not shown) [Example 85, N-{1-cyclopropyl-2-[(6-isopropyl-3,4-dihydroisoquinolin-2(1H)-yl)sulfonyl]ethyl}-N-hydroxyformamide]
 |  |  | > 5000 nM | 0% | 3% |  | 27% |  | O=CN(O)C(CS(=O)(=O)N1CCc2ccc(-c3cccc(O)c3)cc2C1)C1CCCC1 (stereo not shown) [Example 70, N-(1-cyclopentyl-2-{[7-(3-hydroxyphenyl)-3,4-dihydroisoquinolin-2(1H)-yl]sulfonyl}ethyl)-N-hydroxyformamide]
 | > 5000 nM |  | 1200 nM | 37% |  | 0% | 73% |  | O=CN(O)C(CS(=O)(=O)N1CCc2cc(C(F)(F)F)ccc2C1)C1CCCC1 (stereo not shown) [Example 25, N-(1-cyclopentyl-2-{[6-(trifluoromethyl)-3,4-dihydro-isoquinolin-2(1H)-yl]sulfonyl}ethyl)-N-hydroxyformamide]
 |  |  | 490 nM | 30% | 13% |  | 50% |  | CC(C)(C)C(CS(=O)(=O)N1CCc2ccc(Cl)cc2C1)N(O)C=O (stereo not shown) [Example 65, N-(1-{[(7-chloro-3,4-dihydroisoquinolin-2(1H)-yl)sulfonyl]methyl}-2,2-dimethylpropyl)-N-hydroxyformamide]
 | > 5000 nM |  | 620 nM | 0% |  |  | 0% |  | COc1cc2c(cc1OC)CN(S(=O)(=O)CC([C@H]1COC(C)(C)O1)N(O)C=O)CC2 (stereo partly drawn) [Example 14, N-{2-[(6,7-dimethoxy-3,4-dihydroisoquinolin-2(1H)-yl)sulfonyl]-1-[(4S)-2,2-dimethyl-1,3-dioxolan-4-yl]ethyl}-N-hydroxyformamide]
 |  |  | 587 nM | 0% | 57% | 19% | 72% |  | O=CN(O)C(CS(=O)(=O)N1CCc2ccc(-c3ccncc3)cc2C1)C1CCCC1 (stereo not shown) [Example 79, N-{1-cyclopentyl-2-[(7-pyridin-4-yl-3,4-dihydroisoquinolin-2(1H)-yl)sulfonyl]ethyl}-N-hydroxyformamide]
 |  |  | 89 nM | 22% | 12% |  | 43% |  | O=CN(O)C(COc1ccccc1)CS(=O)(=O)N1CCc2ccc(Cl)cc2C1 (stereo not shown) [Example 61, N-[2-[(7-chloro-3,4-dihydroisoquinolin-2(1H)-yl)sulfonyl]-1-(phenoxymethyl)ethyl]-N-hydroxyformamide]
 |  |  | 268 nM | 0% | 31% | -30% | 99% |  | O=CN(O)C(CS(=O)(=O)N1CCc2ccc(-c3ccsc3)cc2C1)C1CCCC1 (stereo not shown) [Example 68, N-(1-cyclopentyl-2-{[7-(3-thienyl)-3,4-dihydroisoquinolin-2(1H)-yl]sulfonyl}ethyl)-N-hydroxyformamide]
 | > 5000 nM |  | 640 nM | 9% |  | 13% | 95% |  | CC(C)c1ccc2c(c1)CCN(S(=O)(=O)CC([C@H]1COC(C)(C)O1)N(O)C=O)C2 (stereo partly drawn) [Example 18, N-{1-[(4S)-2,2-dimethyl-1,3-dioxolan-4-yl]-2-[(6-isopropyl-3,4-dihydroisoquinolin-2(1H)-yl)sulfonyl]ethyl}-N-hydroxyformamide]
 |  |  | > 5000 nM | 34% | 7% |  | 9% |  | CCCCCC(C)(C)C(CS(=O)(=O)N1CCc2cc(C(F)(F)F)ccc2C1)N(O)C=O (stereo not shown) [Example 63, N-[2,2-dimethyl-1-({[6-(trifluoromethyl)-3,4-dihydro-isoquinolin-2(1H)-yl]sulfonyl}methyl)heptyl]-N-hydroxyformamide]
 |  |  | 91 nM | 36% | 32% |  | 71% |  | O=CN(O)C(CS(=O)(=O)N1CCc2ccc(Br)cc2C1)C1CCCC1 (stereo not shown) [Example 64, N-{2-[(7-bromo-3,4-dihydroisoquinolin-2(1H)-yl)sulfonyl]-1-cyclopentylethyl}-N-hydroxyformamide]
 |  |  | 171 nM | 25% | 47% | 10% | 87% |  | CC(C)C(CS(=O)(=O)N1CCc2cc(Cl)c(Cl)cc2C1)N(O)C=O (stereo not shown) [Example 39, N-(1-{[(6,7-dichloro-3,4-dihydroisoquinolin-2(1H)-yl)-sulfonyl]methyl}-2-methylpropyl)-N-hydroxyformamide]
 |  |  | > 5000 nM | 10% | 0% |  | 20% |  | O=CN(O)C(CS(=O)(=O)N1CCc2ccc(C(F)(F)F)cc2C1)C1CCCC1 (stereo not shown) [Example 82, N-(1-cyclopentyl-2-{[7-(trifluoromethyl)-3,4-dihydro-isoquinolin-2(1H)-yl]sulfonyl}ethyl)-N-hydroxyformamide]
 |  |  | > 5000 nM | 6% | 43% | 7% | 85% |  | CCC(CC)C(CS(=O)(=O)N1CCc2cc(C(C)C)ccc2C1)N(O)C=O (stereo not shown) [Example 35, N-(2-ethyl-1-{[(6-isopropyl-3,4-dihydroisoquinolin-2(1H)-yl)sulfonyl]methyl}butyl)-N-hydroxyformamide]
 |  |  | 683 nM | 75% | 28% |  | 63% |  | O=CN(O)C(CS(=O)(=O)N1Cc2ccccc2C1)C1CC1 (stereo not shown) [Example 72, N-[1-cyclopropyl-2-(1,3-dihydro-2H-isoindol-2-ylsulfonyl)-ethyl]-N-hydroxyformamide]
 |  |  | > 5000 nM | 44% | 32% |  | 76% |  | O=CN(O)C(CS(=O)(=O)N1CCc2cc(C(F)(F)F)ccc2C1)C1CC1 (stereo not shown) [Example 74, N-(1-cyclopropyl-2-{[6-(trifluoromethyl)-3,4-dihydro-isoquinolin-2(1H)-yl]sulfonyl}ethyl)-N-hydroxyformamide]
 |  |  | > 5000 nM | 10% | 3% |  | 19% |  | CC(C)(Cc1ccccc1)C(CS(=O)(=O)N1CCc2cc(C(F)(F)F)ccc2C1)N(O)C=O (stereo not shown) [Example 31, N-[2,2-dimethyl-3-phenyl-1-({[6-(trifluoromethyl)-3,4-dihydroisoquinolin-2(1H)-yl]sulfonyl}methyl)propyl]-N-hydroxyformamide]
 |  |  | 1100 nM | 92% | 62% |  | 82% | 17% | CC(C)(C)CC(CS(=O)(=O)N1Cc2ccc(F)cc2C1)N(O)C=O (stereo not shown) [Example 26, N-(1-{[(5-fluoro-1,3-dihydro-2H-isoindol-2-yl)sulfonyl]methyl}-3,3-dimethylbutyl)-N-hydroxyformamide]
 |  |  | 189 nM | 54% | 14% | 5% | 74% |  | CC(C)(C)CC(CS(=O)(=O)N1CCc2ccc(Cl)cc2C1)N(O)C=O (stereo not shown) [Example 41, N-(1-{[(7-chloro-3,4-dihydroisoquinolin-2(1H)-yl)sulfonyl]-methyl}-3,3-dimethylbutyl)-N-hydroxyformamide]
 |  |  | 228 nM | 41% | 37% | 3% | 75% |  | CCC(CC)C(CS(=O)(=O)N1CCc2ccc(Br)cc2C1)N(O)C=O (stereo not shown) [Example 36, N-(1-{[(7-bromo-3,4-dihydroisoquinolin-2(1H)-yl)sulfonyl]-methyl}-2-ethylbutyl)-N-hydroxyformamide]
